{
  "source": "ChEMBL document CHEMBL1125526",
  "about": "“Penicillin derived C2-symmetric dimers as novel inhibitors of HIV-1 proteinase” (J Med Chem, 1992)",
  "biological_target": "Human immunodeficiency virus type 1 protease (Human immunodeficiency virus 1, UniProt Q72874)",
  "assay": "Inhibitory activity towards HIV-1 protease",
  "note": "pIC50: −log10 of the molar value.",
  "data": [
    {"smiles": "COC(=O)[C@@H](NC(=O)Cc1ccccc1)[C@@H]1N[C@@H](C(=O)NCCNC(=O)[C@@H]2N3C(=O)C(NC(=O)Cc4ccccc4)[C@H]3SC2(C)C)C(C)(C)S1", "note": "(stereo partly specified)", "values": [
      {"measurement": "pIC50", "result": 6.30}
    ]},
    {"smiles": "CC1(C)S[C@H]([C@H](NC(=O)Cc2ccccc2)C(=O)NCc2ccccc2)N[C@H]1C(=O)NCCNC(=O)[C@@H]1N[C@@H]([C@H](NC(=O)Cc2ccccc2)C(=O)NCc2ccccc2)SC1(C)C", "values": [
      {"measurement": "pIC50", "result": 9.05}
    ]},
    {"smiles": "CC1(C)S[C@H]([C@H](NC(=O)Cc2ccccc2)C(N)=O)N[C@H]1C(=O)NCCNC(=O)[C@@H]1N[C@@H]([C@H](NC(=O)Cc2ccccc2)C(N)=O)SC1(C)C", "values": [
      {"measurement": "pIC50", "result": 8.52}
    ]},
    {"smiles": "CCNC(=O)[C@@H](NC(=O)Cc1ccccc1)[C@@H]1N[C@@H](C(=O)OCCOC(=O)[C@@H]2N[C@@H]([C@H](NC(=O)Cc3ccccc3)C(=O)NCC)SC2(C)C)C(C)(C)S1", "values": [
      {"measurement": "pIC50", "result": "< 4.92"}
    ]},
    {"smiles": "COC(=O)[C@@H](NC(=O)Cc1ccccc1)[C@@H]1N[C@@H](C(=O)NCCNC(=O)[C@@H]2N[C@@H]([C@H](NC(=O)Cc3ccccc3)C(=O)OC)SC2(C)C)C(C)(C)S1", "values": [
      {"measurement": "pIC50", "result": 7.22}
    ]},
    {"smiles": "COC(=O)[C@@H](NC(=O)Cc1ccccc1)[C@@H]1N[C@@H](C(=O)NCCCNC(=O)[C@@H]2N[C@@H]([C@H](NC(=O)Cc3ccccc3)C(=O)OC)SC2(C)C)C(C)(C)S1", "values": [
      {"measurement": "pIC50", "result": "< 4.92"}
    ]},
    {"smiles": "COC(=O)[C@@H](NC(=O)Cc1ccccc1)[C@@H]1N[C@@H](C(=O)NCCNC(C)=O)C(C)(C)S1", "values": [
      {"measurement": "pIC50", "result": "< 4.26"}
    ]},
    {"smiles": "COC(=O)[C@@H](NC(=O)Cc1ccccc1)[C@@H]1N[C@@H](C(=O)NNC(=O)[C@@H]2N[C@@H]([C@H](NC(=O)Cc3ccccc3)C(=O)OC)SC2(C)C)C(C)(C)S1", "values": [
      {"measurement": "pIC50", "result": 5.17}
    ]},
    {"smiles": "CCNC(=O)[C@@H](NC(=O)Cc1ccccc1)[C@@H]1N[C@@H](C(=O)NCCNC(=O)[C@@H]2N[C@@H]([C@H](NC(=O)Cc3ccccc3)C(=O)NCC)SC2(C)C)C(C)(C)S1", "values": [
      {"measurement": "pIC50", "result": 8.32}
    ]},
    {"smiles": "CCNC(=O)[C@@H]1N[C@@H]([C@H](NC(=O)Cc2ccccc2)C(=O)OC)SC1(C)C", "values": [
      {"measurement": "pIC50", "result": "< 4.20"}
    ]},
    {"smiles": "CC1(C)S[C@@H]2[C@H](NC(=O)Cc3ccccc3)C(=O)N2[C@H]1C(=O)NCCNC(=O)[C@@H]1N2C(=O)[C@@H](NC(=O)Cc3ccccc3)[C@H]2SC1(C)C", "values": [
      {"measurement": "pIC50", "result": "< 4.15"}
    ]}
  ]
}
